Values quoted from earlier work, collected in patent US20020058290A1, “Cell lines and cell-based assays for identification of androgen receptor modulators” (priority 2000, published 2002).

Tested on: MAP kinases Erk-1 and Erk-2
Conditions: AR-transfected PC3 cells; AR dependent, similar to DHT

Structure (SMILES)	activation of MAP kinases Erk-1 and Erk-2
CC(C)(O)C(=O)Nc1ccc([N+](=O)[O-])c(C(F)(F)F)c1 [Hydroxyflutamide]	activate MAP kinases Erk-1 and Erk-2 in an AR dependent fashion
CC(O)(CS(=O)(=O)c1ccc(F)cc1)C(=O)Nc1ccc(C#N)c(C(F)(F)F)c1 (centres unmarked) [Casodex]	activate MAP kinases Erk-1 and Erk-2 in an AR dependent fashion
